Measurements taken from patent US20170027171A1, “METHOD FOR CONTROLLING PLANT DISEASES” (Nihon Nohyaku Co., Ltd., priority 2014, published 2017).

What was measured:
Type in all cases: in vivo
[1] = system: Septoria tritici, KUK-1-21 Strain; assay: Test for wheat leaf blotch, potted wheat, foliar spray before inoculation
From the text: Test for Wheat Leaf Blotch (Septoria tritici, KUK-1-21 Strain):
(§1) The formulation produced in Formulation Example 1 was adjusted to predetermined concentrations and these prepared agrochemical liquids were applied to wheat plants in pots at a rate equivalent to 1000 L/ha with a spray gun. After the agrochemical treatment, the wheat pots were kept outdoors for 1 day or 7 days, and then spray-inoculated with wheat leaf blotch pathogen Septoria tritici (1×10^6 spores/mL). After that, the wheat pots were kept in a greenhouse, in which the conditions favored the development of the disease. Three weeks after the inoculation, the lesion area index (0-10) was determined for the evaluation of the control effect.

[2] = system: Septoria nodorum; assay: Test for wheat glume blotch, potted wheat, foliar spray before inoculation; conditions: wheat in pots, 1000 L/ha spray, number of lesions per leaf ten days after inoculation
From the text: Test for Wheat Glume Blotch (Septoria nodorum)
as §1, with “nodorum (2.4×10^6” for “tritici (1×10^6”, “disease.” for “disease. Three weeks after the inoculation, the lesion area index (0-10) was determined for the evaluation of the control effect.”
Ten days after the inoculation, the number of lesions per leaf was counted for the evaluation of the control effect.

[3] = system: Pseudocercosporella herpotrichoides; assay: Test for wheat eyespot, potted wheat, foliar spray before inoculation; conditions: wheat in pots, percentage of stems with lesions three weeks after inoculation
From the text: Test for Wheat Eyespot (Pseudocercosporella herpotrichoides)
The formulation produced in Formulation Example 1 was adjusted to predetermined concentrations and these prepared agrochemical liquids were applied to wheat plants in pots at a predetermined rate with a spray gun. After air-drying, the wheat pots were spray-inoculated with a spore suspension of wheat eyespot pathogen Pseudocercosporella herpotrichoides (4.2×10^6 spores/mL). After that, the wheat pots were kept in a greenhouse, in which the conditions favored the development of the disease. Three weeks after the inoculation, the percentage of stems with lesions was determined for the evaluation of the control effect.

Compound: O=C1C(Cl)=C(Cl)C(=O)N1c1ccc(F)cc1 [Fluoroimide]
- Control rate, Inoculated at 1 day post-treatment ([1]; 62.5 ppm, wheat in pots, 1000 L/ha spray, lesion area index three weeks after inoculation): 62
- Control rate, Inoculated at 1 day post-treatment ([1]; 125 ppm, wheat in pots, 1000 L/ha spray, lesion area index three weeks after inoculation): 84
- Control rate, Inoculated at 1 day post-treatment ([1]; 250 ppm, wheat in pots, 1000 L/ha spray, lesion area index three weeks after inoculation): 95
- Control rate, Inoculated at 7 days post-treatment ([1]; 500 ppm, wheat in pots, 1000 L/ha spray, lesion area index three weeks after inoculation): 65
- Effect for controlling leaf blotch (in words) ([1]; summary of the results): highly effective
- Control rate, Inoculated at 1 day post-treatment ([2]; 62.5 ppm): 63
- Control rate, Inoculated at 1 day post-treatment ([2]; 125 ppm): 90
- Control rate, Inoculated at 1 day post-treatment ([2]; 250 ppm): 94
- Control rate, Inoculated at 1 day post-treatment ([2]; 500 ppm): 96
- Control rate, Inoculated at 7 days post-treatment ([2]; 500 ppm): 85
- Control rate, Inoculated after treatment and air-drying ([3]; 125 ppm): 56
- Control rate, Inoculated after treatment and air-drying ([3]; 250 ppm): 80
- Control rate, Inoculated after treatment and air-drying ([3]; 500 ppm): 95
